Columns and labels:
Test in all cases: relative viability (nuclei count vs DMSO), 5 days (fraction); higher = more cells survive
[1] = compound: O=C(Nc1cc(C(F)(F)F)cc(C(F)(F)F)c1)c1cc(Cl)ccc1O [IMD-0354] + COc1cccc2cc(-c3nc([C@H]4CC[C@H](C(=O)O)CC4)n4ncnc(N)c34)[nH]c12 [OSI-027] (partner 0.5 µM)
Method in brief: (§1)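 Relative viability was taken as the ratio of nuclei in treated wells to nuclei in vehicle wells. Lung cancer cell lines in 1536-well plates received compounds by pin tool one day after seeding, either one drug alone or a fixed anchor-drug dose plus five library-drug doses (not always all listed) in √10 steps. Nuclei were counted on 4× images after 5 days of treatment, and values are medians of duplicate plates.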

[2] = compound: O=C(Nc1cc(C(F)(F)F)cc(C(F)(F)F)c1)c1cc(Cl)ccc1O [IMD-0354] + Cc1nc(NC(=O)N2CCC[C@H]2C(N)=O)sc1-c1ccnc(C(C)(C)C(F)(F)F)c1 [Alpelisib] (partner 2 µM)
Method in brief: as §1

[3] = compound: O=C(Nc1cc(C(F)(F)F)cc(C(F)(F)F)c1)c1cc(Cl)ccc1O [IMD-0354] + O=C(CCCCCCC(=O)Nc1ccccc1)NO [Vorinostat] (partner 1 µM)
Method in brief: as §1

[4] = compound: O=C(Nc1cc(C(F)(F)F)cc(C(F)(F)F)c1)c1cc(Cl)ccc1O [IMD-0354] + C[C@]1(O)C[C@@H](c2nc(-c3ccc4ccc(-c5ccccc5)nc4c3)c3c(N)nccn32)C1 [Linsitinib] (partner 1 µM)
Method in brief: as §1

Row | Cell Line | relative viability ([1]; first compound 0.04 µM) | relative viability ([1]; first compound 0.1265 µM) | relative viability ([1]; first compound 0.4 µM) | relative viability ([1]; first compound 1.265 µM) | relative viability ([1]; first compound 4 µM) | relative viability ([2]; first compound 0.04 µM) | relative viability ([2]; first compound 0.1265 µM) | relative viability ([2]; first compound 0.4 µM) | relative viability ([2]; first compound 1.265 µM) | relative viability ([2]; first compound 4 µM) | relative viability ([3]; first compound 0.04 µM) | relative viability ([3]; first compound 0.1265 µM) | relative viability ([3]; first compound 0.4 µM) | relative viability ([3]; first compound 4 µM) | relative viability ([4]; first compound 0.04 µM) | relative viability ([4]; first compound 0.1265 µM) | relative viability ([4]; first compound 0.4 µM) | relative viability ([4]; first compound 1.265 µM) | relative viability ([4]; first compound 4 µM) | relative viability ([3]; first compound 1.265 µM)
1 | ABC-1 | 0.517 | 0.331 | 0.369 | 0.207 | 0.23 | 1.15 | 1.1 | 0.887 | 0.375 | 0.252 | 1.1 | 1.22 | 0.575 | 0.443 | 0.858 | 0.826 | 0.57 | 0.335 | 0.28 | 
2 | NCI-H358 | 0.676 | 0.826 | 0.403 | 0.124 | 0.141 | 0.944 | 0.746 | 0.429 | 0.223 | 0.306 | 0.768 | 0.753 | 0.323 | 0.175 | 0.993 | 0.773 | 0.385 | 0.23 | 0.221 | 0.135
3 | NCI-H2347 | 0.37 | 0.331 | 0.42 | 0.294 | 0.335 | 1.05 | 1.12 | 0.772 | 0.498 | 0.37 | 0.636 | 0.629 | 0.512 | 0.382 | 1.04 | 1.08 | 0.824 | 0.511 | 0.447 | 0.315
4 | NCI-H1993 | 0.576 | 0.504 | 0.562 | 0.522 | 0.482 | 0.762 | 0.695 | 0.581 | 0.487 | 0.514 | 0.75 | 0.696 | 0.582 | 0.498 | 0.671 | 0.747 | 0.696 | 0.491 | 0.567 | 0.313

Reference: the supplement of paper PMC10307832
